The results in this text go back to ChEMBL document CHEMBL5154919, “New ZW4864 Derivatives as Small-Molecule Inhibitors for the β-Catenin/BCL9 Protein-Protein Interaction” (ACS Med Chem Lett, 2022).

Active and inactive are the calls of the source. The calls are words filed in the database; no cut-off is given here.

Series [1] has as its system SW480. The series can be described thus: Effect of Wnt/beta-Catenin signaling pathway in human SW480 cells assessed as decrease in Axin2 level at 20 uM incubated for 24 hrs by Western blot analysis. The note with it: DDE = dose-dependent effect. In kind it is functional, cell-based. (Immunoblotting shows a protein as a band on a membrane.)
A short description of series [2]: Effect of Wnt/beta-Catenin signaling pathway in human SW480 cells assessed as reduction in Axin2 level at 5 uM incubated for 24 hrs by qRT-PCR analysis relative to control. Type of series: functional. As to conditions: SW480, 24 h. (Quantitative PCR measures a nucleic acid by following its amplification.)
In series [3] the test system is MDA-MB-468. The series is described as follows: Effect of Wnt/beta-Catenin signaling in human MDA-MB-468 cells transfected with beta-catenin plasmid assessed as inhibition of cell growth rescue measured after 72 hrs by MTS assay. Type of series: functional, cell-based.
The nature of series [4]: Effect of Wnt/beta-Catenin signaling pathway in human SW480 cells assessed as reduction in Axin2 level at 10 uM incubated for 24 hrs by qRT-PCR analysis relative to control. As to conditions: SW480, 24 h. In kind it is functional.
Series [5] concerns SW480. The series is described as follows: Antiproliferative activity against human SW480 cells assessed as inhibition of cell growth measured by MTS method. Type of series: functional, cell-based. Background: Tetrazolium assays rely on reduction of a dye to a coloured formazan, in cell work by metabolically active cells.
Series [6] in a line: Effect of Wnt/beta-Catenin signaling pathway in human SW480 cells assessed as reduction in BCL9L level at 20 uM incubated for 24 hrs by qRT-PCR analysis relative to control. In kind it is functional. The note with it: SW480, 24 h.
Series [7] deals with MDA-MB-468. The series is described as follows: Antiproliferative activity against human MDA-MB-468 cells assessed as inhibition of cell growth measured by MTS method. In kind it is functional, cell-based.
In the next series the target is CYP2D6 (Homo sapiens, UniProt P10635). The series can be described thus: Inhibition of CYP2D6 in human liver microsomes using bufuralol as substrate at 10 uM in presence of NADPH incubated for 10 mins. Type of series: ADME, Microsome. As to conditions: probe bufuralol.
The test system of series [8] is SW480. The series can be described thus: Effect of Wnt/beta-Catenin signaling pathway in human SW480 cells assessed as decrease in Cyclin D1 level at 20 uM incubated for 24 hrs by Western blot analysis. Type of series: functional, cell-based. As to conditions: DDE = dose-dependent effect.
The test system of another series is MDA-MB-231. The series can be described thus: Antiproliferative activity against human MDA-MB-231 cells assessed as inhibition of cell growth measured by MTS method. Type of series: functional, cell-based.
The nature of series [9]: Effect of Wnt/beta-Catenin signaling pathway in human SW480 cells assessed as reduction in HPRT level at 20 uM incubated for 24 hrs by qRT-PCR analysis relative to control. Type of series: functional. The note with it: SW480, 24 h.

Chain of CYP2D6 (P10635 whole entry): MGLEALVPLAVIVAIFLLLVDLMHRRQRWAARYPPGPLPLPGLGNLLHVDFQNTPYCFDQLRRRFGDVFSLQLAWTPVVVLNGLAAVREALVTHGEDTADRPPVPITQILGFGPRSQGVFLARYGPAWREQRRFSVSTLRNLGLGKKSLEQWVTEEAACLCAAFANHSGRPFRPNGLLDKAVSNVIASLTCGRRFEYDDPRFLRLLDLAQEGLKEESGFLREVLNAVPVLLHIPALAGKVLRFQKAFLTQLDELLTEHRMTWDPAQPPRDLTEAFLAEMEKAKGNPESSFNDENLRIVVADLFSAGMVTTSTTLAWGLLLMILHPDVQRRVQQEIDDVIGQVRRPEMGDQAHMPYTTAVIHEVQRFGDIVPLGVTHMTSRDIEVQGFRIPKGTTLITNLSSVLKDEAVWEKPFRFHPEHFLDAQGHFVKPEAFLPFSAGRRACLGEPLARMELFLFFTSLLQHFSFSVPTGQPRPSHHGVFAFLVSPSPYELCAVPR

Regarding `CC(C)(Oc1cccc(N2CCC[C@@H](C(=O)N(Cc3ccc(-c4cnc5[nH]ccc5c4)cc3)C3CC3)C2)c1)C(=O)N1CCNCC1.Cl`, the inhibition result in the series on SW480 [1] and in the series on SW480 [8] was “Dde” in each case. For the same compound, the level, % of control at 5 µM in series [2] was determined as 72%. For the same compound, the inhibition (usually the change of the read-out against control, counted positive when it falls) with MDA-MB-468 [3] is “Active”. For the same compound, the level, % of control at 10 µM in series [4] was determined as 56%. Besides, the half-maximal inhibitory concentration (IC50) (commonly the point on the concentration scale where inhibition reaches its midpoint) turned out to be 14 µM in the series on SW480 [5], 5 µM with MDA-MB-468 [7] and 6.3 µM in the series on MDA-MB-231. Besides, the level, % of control at 20 µM in series [6] came to 32%; in series [9], 99%. Moreover, the inhibition at 10 min, 10 µM on CYP2D6 stood at 54%.
